Assay results: PubChem BioAssay (NCI)
“And” between values parts separate entries of the source, which are not always exact repeats. Equal entries are not always repeated.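 Method: 48-hour compound exposure of cells in 96-well plates, five concentrations, linear interpolation of endpoints. GI50 marks 50% less growth. TGI: concentration producing complete growth inhibition.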

Assays:
Assay in all cases: NCI tumour cell line growth inhibition, 48 h
SNB-78 CNS = test system: SNB-78 CNS
HOP-18 NSCLC = test system: HOP-18 NSCLC
T-47D breast = test system: T-47D breast
PC-3 prostate = test system: PC-3 prostate
DU-145 prostate = test system: DU-145 prostate
HS 578T breast = test system: HS 578T breast
DLD-1 colon = test system: DLD-1 colon
KM20L2 colon = test system: KM20L2 colon

Structure (SMILES) | TGI (SNB-78 CNS) [µM] | TGI (HOP-18 NSCLC) [µM] | TGI (T-47D breast) | TGI (PC-3 prostate) | TGI (DU-145 prostate) | TGI (HS 578T breast) | GI50 (PC-3 prostate) | GI50 (DU-145 prostate) | GI50 (HS 578T breast) | TGI (DLD-1 colon) [µM] | TGI (KM20L2 colon) [µM] | GI50 (T-47D breast) | GI50 (SNB-78 CNS) [µM] | GI50 (DLD-1 colon) [µM] | GI50 (KM20L2 colon) [µM]
Clc1ccc(C(n2cc(Br)cn2)n2cc(Br)cn2)cc1 | 44.4 | 34.4 |  |  |  |  |  |  |  |  |  |  |  |  | 
COc1cccc(/C=N/C(/N=C/c2cccc(OC)c2O)c2cccc(OC)c2O)c1O |  |  | 63.9 µM | > 100 µM | 78.7 µM | 61.5 µM |  |  |  |  |  |  |  |  | 
CC(C)=CC1=C2C3=C(C(=O)C4(O)Oc5c(C)c6c7c(c5OC24C)[C@@H](C)CC[C@@H]7[C@@H](C)C[C@H]6C=C(C)C)C(C)CCC3C(C)C1 (stereo partly specified) |  |  |  | > 100 µM | > 100 µM | > 100 µM | > 100 µM | > 100 µM | > 100 µM |  |  |  |  |  | 
CC(=O)O[C@H]1C(=O)[C@@]2(C)C(C(OC(=O)c3ccccc3)C3[C@@H](O)C(OC(=O)[C@@H](O)[C@H](NC(=O)c4ccccc4)c4ccc(C(F)(F)F)cc4)C(C)=C1C3(C)C)[C@]1(OC(C)=O)CO[C@@H]1C[C@@H]2O (stereo partly specified) | > 25 |  |  |  |  |  |  |  |  | > 25 | > 25 |  |  |  | 
O=C(O)C1CC(O)CN1 (stereo unspecified) |  |  | > 100 µM | > 100 µM | > 100 µM | > 100 µM |  |  |  |  |  |  |  |  | 
O=C1C[C@@H]2/C(=C(O)\C=C\c3ccccc3)C(=O)C=C[C@@H]2O1 |  |  | 4.55 µM | 4.9 µM | 1.93 µM | 60.5 µM | 1.95 µM | 0.515 µM | 5.27 µM |  |  | 0.905 µM |  |  | 
O=C(/C=C/c1ccc(C(F)(F)F)cc1)c1ccc(Nc2nc(NCCO)nc(Nc3ccc(Cl)cc3)n2)cc1 |  |  | 26.6 µM | 15 µM | 18.7 µM | 15.6 µM | 2.99 µM | 6.08 µM | 2.82 µM |  |  | 3.4 µM |  |  | 
COc1cc(C2CC(c3ccc(Nc4ccnc5cc(Cl)ccc45)cc3)=NN2c2ccc(Cl)cc2)cc(OC)c1OC (stereo unspecified) |  |  | > 100 µM | > 100 µM | > 100 µM | > 100 µM | 1.47 µM | 8.08 µM | 2.18 µM |  |  | 2.13 µM |  |  | 
COC(=O)/C=C/c1cc2c(cc1-c1c(C(=O)O)cc(OC)c(OC)c1OC)OCO2 |  |  | > 10 µM | > 10 µM | > 10 µM | > 10 µM |  |  |  |  |  |  |  |  | 
COc1cc(Nc2ncc(F)c(Nc3ccc4c(n3)N(COP(=O)(O)O)C(=O)C(C)(C)O4)n2)cc(OC)c1OC |  |  | 26 µM and > 10 µM | 22.6 µM and > 10 µM | 22.3 µM and > 10 µM | 4.27 µM and 0.59 µM | 2.1 µM and 4.17 µM | 3.69 µM and 3.08 µM | 0.538 µM and 0.173 µM |  |  | 2.92 µM and 1.24 µM |  |  | 
COC(=O)c1c2cccccc-2c(Cc2c3cccccc-3c(C(=O)OC)c2O)c1O | > 100 | > 100 |  |  |  |  |  |  |  | > 100 | > 100 |  |  |  | 
CCNC(=O)O[C@H]1CN[C@H](C#Cc2cc3ncnc(Nc4ccc(OCc5cccc(F)c5)c(Cl)c4)c3s2)C1 |  |  | > 25 µM | > 25 µM | > 25 µM | 24.6 µM | 5.93 µM | 4.72 µM | 4.82 µM |  |  | 1.49 µM |  |  | 
C[N+]1=C(/C=C\C=C\c2ccccc2)C(C)(C)c2ccccc21 |  |  | 5.36 µM | 14.9 µM | 16.1 µM | 22.4 µM | 3.54 µM | 4.62 µM | 4.6 µM |  |  | 0.966 µM |  |  | 
CN(Cc1cc(C(C)(C)C)cc(Br)c1O)Cc1cc(C(C)(C)C)cc(Br)c1O |  |  | 12.3 µM | 9.32 µM | 19.3 µM | 7.65 µM |  |  |  |  |  |  |  |  | 
C=C1CC2(OC1=O)C(=O)Nc1ccccc12 (stereo unspecified) |  |  | 2.92 µM | 18.8 µM | 8.47 µM | 56.6 µM | 5.26 µM | 2.54 µM | 11 µM |  |  | 1.13 µM |  |  | 
COc1cc(-c2nc(SCCC(C)C)nc(Nc3ccc(S(N)(=O)=O)cc3)c2C#N)cc(OC)c1OC |  |  | > 100 µM | > 100 µM | > 100 µM | 7.77 µM | 2.72 µM | 3.47 µM | 2.21 µM |  |  | 2.26 µM |  |  | 
Cc1cc2c([nH]c3ccccc32)c2c1OC(C)(C)C1C3CC(C)(C)Oc4c(C)cc5c6ccccc6n(c5c43)C21 (stereo unspecified) | > 100 | > 100 |  |  |  |  |  |  |  |  | > 100 |  |  |  | 
Cc1ncc(C(=O)Nc2ccc(CN3CCN(C)CC3)c(C(F)(F)F)c2)cc1C#Cc1cnc(N)cc1C#N |  |  | > 16.7 µM | 3.48 µM | 2.75 µM | 1.72 µM | 0.71 µM | 0.278 µM | 0.204 µM |  |  | > 16.7 µM |  |  | 
C#CCOc1cccc(Nc2ncnc3cc(NC(=O)CCl)ccc23)c1 |  |  | 32 µM | 12 µM | 21.6 µM | 26.9 µM | 2.57 µM | 10 µM | 3.61 µM |  |  | 9.11 µM |  |  | 
O=c1cccccc1[O-].O=c1cccccc1[O-].O=c1cccccc1[O-].[La+3] | 86.9 |  |  |  |  |  |  |  |  | > 100 | > 100 |  | 10.5 | 22.7 | 17
Nc1nc2c3nc(Nc4ccccc4)sc3nc(=O)n2c2sc(Nc3ccccc3)nc12 | > 100 | > 100 |  |  |  |  |  |  |  | > 100 | > 100 |  |  |  | 
Cc1cnc(C(=O)Nc2nc3ccc(S(=O)(=O)Nc4ccc(C5(C(F)(F)F)CC5)cc4)cc3[nH]2)cn1 |  |  | 17.2 µM | 4.39 µM | 2.23 µM | 6.54 µM | 0.311 µM | 0.357 µM | 0.367 µM |  |  | 0.596 µM |  |  | 
N#CC1CC2(CCN1C(=O)c1ccccc1)OCCO2 (stereo unspecified) | > 100 | > 100 |  |  |  |  |  |  |  | > 100 | > 100 |  |  |  | 
CN(C)c1ccc(/C=C/c2cc[n+](C)c(/C=C/c3ccc(N(C)C)cc3)c2)cc1 |  |  | 1.3 µM | 1.26 µM | 11 µM | 16.6 µM | 0.248 µM | 0.398 µM | 0.491 µM |  |  | 0.152 µM |  |  | 
COC(=O)CC[C@H](Cc1ccccc1)NC(=O)c1csc([C@@H](C[C@H](C(C)C)N(C)C(=O)[C@@H](NC(=O)[C@H]2CCCCN2C)C(C)C)OC(C)=O)n1 |  |  |  | > 25 µM | > 25 µM | > 25 µM | < 0.0025 µM | < 0.0025 µM | < 0.0025 µM |  |  |  |  |  | 
CCCCCCCc1cc2c3c(nc4ccccc42)C(=O)c2cccnc2-c3n1 |  |  | 20.7 µM | 10.9 µM | 6.63 µM | 11.6 µM | 4.39 µM | 2.54 µM | 4.86 µM |  |  | 4.31 µM |  |  | 
Cc1ccc(O)c(NC(=O)c2ccc(CNc3ccnc(C(F)(F)F)c3)cc2)c1 |  |  | 17.7 µM | 38 µM | 39.4 µM | 42.8 µM | 9.5 µM | 12.8 µM | 11.2 µM |  |  | 1.74 µM |  |  | 
